Results from patent EP1431294A1, “VASCULAR WALL-SELECTIVE ACAT INHIBITOR” (Kowa Company Ltd., priority 2001, dated 2003).
pIC50: −log10 of the molar value.

Tests used:
ACAT [1] = target: T1, ACAT (Mus musculus, UniProt Q61263); test: ACAT inhibitory activity test in J774 cells (anti-foaming action); type: cell-based; conditions: for pIC50: J774 cells, 25-hydroxycholesterol 10 µg/mL, 18 hours, cholesterol ester per protein
T1 construct: J774 cells or HepG2 cells were sown on a 24-well plate; endogenous in cells; host or cells: J774 cells
T1 sequence (Q61263 1-540): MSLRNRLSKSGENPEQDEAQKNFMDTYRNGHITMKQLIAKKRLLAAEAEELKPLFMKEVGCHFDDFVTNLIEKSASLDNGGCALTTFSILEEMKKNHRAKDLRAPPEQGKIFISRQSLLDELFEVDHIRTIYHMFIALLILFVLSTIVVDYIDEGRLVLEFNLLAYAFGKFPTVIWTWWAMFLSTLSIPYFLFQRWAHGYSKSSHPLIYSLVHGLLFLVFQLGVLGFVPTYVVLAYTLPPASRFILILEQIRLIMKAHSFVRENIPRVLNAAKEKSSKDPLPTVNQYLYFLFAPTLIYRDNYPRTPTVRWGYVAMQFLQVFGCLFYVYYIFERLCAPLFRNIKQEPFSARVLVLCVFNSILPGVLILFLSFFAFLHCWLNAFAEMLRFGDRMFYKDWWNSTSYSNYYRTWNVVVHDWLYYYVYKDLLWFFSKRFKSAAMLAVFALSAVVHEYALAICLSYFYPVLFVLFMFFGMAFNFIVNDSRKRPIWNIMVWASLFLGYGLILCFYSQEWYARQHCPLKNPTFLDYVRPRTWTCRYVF
Description: (§1) J774 cells or HepG2 cells were sown on a 24-well plate and incubation was carried out at 37°C for 24 hours in a 5% CO2 incubator using a Dulbecco's modified Eagle's medium for J774 cells and an Eagle's minimum essential medium for HepG2 cells (where both media contained 10% of fetal bovine serum). […] The medium was taken out, washed with PBS twice, extracted with 1.5 mL of hexane-isopropanol (3:2) and concentrated to dryness. The extract was dissolved in isopropanol containing 0.2 mL of 10% Triton X-100 and then total cholesterol (TC) and free cholesterol (FC) were determined by a Cholesterol E Test Wako (Wako Pure Chemical) and a Free Cholesterol E Test Wako (Wako Pure Chemical), respectively. The residue of the cell after extraction was solubilized with 0.25 mL of 2N NaOH at 37°C for 30 minutes and protein was determined by a BCA Protein Assay Reagent (Pierce). From the differencebetween TC and FC, amount of cholesterolester per protein was calculated and, from the comparative calculation with the control, IC50 value was determined.

[2] = tested on: lipid-loaded model of F1B hamster; test: Arteriosclerotic model animal test (lipid-loaded F1B hamster); conditions: for dose from which suppression of lipid accumulation was effective / plasma cholesterol at doses effective in suppression of lipid accumulation: F1B hamsters; for dose from which suppression of lipid accumulation was effective: drug in high-fat feed; for dose from which suppression of lipid accumulation was effective / CE/FC Adrenal Gland / CE/FC Lipid Accumulation to Artery / CE/FC Liver / CE/FC Small Intestine: 10 weeks; for plasma cholesterol at doses effective in suppression of lipid accumulation: total cholesterol in plasma relative to control, Dunnett's test; for CE/FC Adrenal Gland / CE/FC Lipid Accumulation to Artery / CE/FC Liver / CE/FC Small Intestine: ratio to control (1.0)
Description: Male hamsters of a Bio F1B strain purchased from Nippon Charles River were randomly grouped so that each group comprised six. As from eight weeks age, they were loaded with a high-fat feed (0.3% of cholesterol and 10% of coconut oil) for ten weeks while the drug was administered by mixing with the feed. After ten weeks, blood was collected and cholesterol in plasma was measured. Further, arterywas excised after fixingbyperfusion with a 10% formalin solution. This was incised, lipid which was accumulated in the artery was stained with Oil Red O and the stained area was measured using an image analyzer.
A high-fat feed (0.3% of cholesterol and 10% of coconut oil) was prepared by way of compounding ratio of cholesterol : coconut oil : feed (CE-2) = 0.03:1:9. Incidentally, a high-fat feed was given to the control group and the administered period was 10 weeks.
Hamster under a non-fasted state was anesthetized, subj ected to an abdominal section to expose the abdominal artery and about 2.5 mL of blood were collected. The collected blood was centrifuged at 3, 000 rpm for 15 minutes to collect the plasma and then total cholesterol (TC) and free cholesterol (FC) in plasma were determined by a Cholesterol E-Test Wako (a cholesterol oxidase DAOS method) and a Free Cholesterol E-Test Wako (a cholesterol oxidase DAOS method), respectively.
About 500 mg of liver, small intestine and adrenal body were excised and washed with a physiological saline solution and lipid concentration in the tissues was measured. In the measurement, 10 mL of chloroform : methanol (2:1) as an extracting solution for lipid in the tissue were placed in the liver and the small intestine, homogenized at 3,000 rpm using a Polytron Homogenizer PT 3100 and allowed to stand at 4°C for one night. The extract was centrifuged at 1,500 rpm for 15 minutes, 0.2 mL of the supernatant liquid was evaporated to dryness using a vacuum pump, the residue was dissolved in 50 µL of isopropanol and each lipid was subjected to the same kits whereupon TC and FC were quantified. With regard to the adrenal body, it was finely cut using scissors and 0.5 mL of chloroform : methanol (2:1) was added thereto followed by being allowed to stand at 4°C for one night. That was centrifuged at 1,500 rpm for 15 minutes, 0.2 mL of the supernatant liquid was evaporated to dryness using a vacuum pump, the residue was dissolved in 50 µL of isopropanol and each lipid was subjected to the same kits whereupon TC and FC were quantified.
With regard to the total cholesterol (TC) in plasma in the group to which the drug was administered, the relative ratio to TC in the control group was used as an indicator while, with regard to the tissue, difference between TC and FC was defined as CE (cholesterol ester) and the lipid-constituting ratio, CE/FC, in each organ was determined whereupon their relative ratio to each control was calculated and used as an indicator. Thus, in those indicators, the control group was defined as 100% and the calculation using the following formula was carried out so as to use a plasma TC lowering action by ACAT inhibitory action to liver and small intestine of the group to which the drug was administered as an indicator and also to use the variation of CE/FC ratio by an ACAT inhibitory action to each organ as an indicator. Indicator (%) for total cholesterol in plasma = [(TC of drug-administered group)/(TC of the control group)] × 100 [formula] Indicator (%) for lipid constituting ratio in each organ = [(CE/FC of drug-administered group)/(CE/FC of the control group)] × 100 [formula]
After collection of the blood, a 18-G injection needle was inserted into apex and perfused with a physiological saline solution (120 mmHg) for about 5minutes. It was further perfused with a 10% neutral formalin buffer (120 mmHg) for about 5 minutes. Bulbar and thoracic artery was excised and fixed in a 10% formalin buffer.

ACAT [3] = test: ACAT inhibitory activity test in HepG2 cells; type: cell-based; conditions: 25-hydroxycholesterol 10 µg/mL, 18 hours, cholesterol ester per protein
Description: as §1

[4] = Oral absorption test in rats under a fed condition (plasma concentration); type: in vivo; conditions: for AUC(0-inf) / Cmax: rat, plasma, po, 30 mg/kg, rats, fed, oral 30 mg/kg
Description: A solution of the compound of the present invention (dissolved in a mixture of water : PEG 400 = 1:4) or a suspension in 0.5% methyl cellulose (MC) was compulsorily administered per os at. the dose of 30 mg/kg to three rats under a fed condition. Blood after the administration was periodically collected and its concentration in plasma was measured.
The organic layer (upper layer) was collected, the solvent was evaporated in a nitrogen stream, the residue was dissolved in 0.2 mL of a mobile phase (refer to the following) and 80 µL thereof were measured under the following analytical conditions.
The organic layer was collected, the solvent was evaporated in a nitrogen stream, the residue was dissolved in 0.2 mL of a mobile phase (refer to the following) and 80 µL thereof were measured under the following condition for high-performance liquid chromatography. Condition for detection: • (Detector: Single-stage quadrupole mass spectrometer • Ionization method: Atmospheric pressure chemical ionization method • Temperature of nebulizer: 475°C • Corona voltage: 3 kV • Monitoring ion: m/z 569 (hydrogen addition ion of the compound of Example 78), 549 (hydrogen addition ion of the compound of Example 85)) Condition for separation: • (Column: Symmetry RP8 manufactured by Waters (3.0 mmφ × 150 mm) • Temperature of column: 45°C • Mobile phase: a solution where 0.1% ammonium formate (pH 4)/methanol/acetonitrile are mixed in […] • Flow rate: 0.8 mL/min)
To 150 µL of plasma were added a 0.1 mol/L aqueous solution of sodium hydroxide and 0.2 mL of an analogous compound (500 ng/mL of the compound of Example 28 of the Japanese Patent Application No. 8/158,743, i.e. 8-(benzimidazol-2-ylthio)-N-(2,6-diisopropylphenyl)octanamide as an internal standard, stirred and extracted with 6 mL of an isopropanol/hexane (5: 95) solution. The organic layer was collected, the solvent was evaporated in a nitrogen stream, the residue was dissolved in 0.2 mL of a mobile phase (refer to the following) and 80 µL thereof were measured under the following condition for high-performance liquid chromatography.

[5] = Water solubility in liquid I of the Japanese Pharmacopoeia; type: physicochemical
[6] = Oral absorption test in rats under a fed condition (plasma concentration); type: in vivo; conditions: rat, 30 mg/kg, medium PEG 400

| SMILES | pIC50 (ACAT [1]) | dose from which suppression of lipid accumulation was effective [2] [mg/kg] | plasma cholesterol at doses effective in suppression of lipid accumulation [2] | CE/FC Adrenal Gland ([2]; dose 1 mg/kg in feed) | CE/FC Lipid Accumulation to Artery ([2]; dose 1 mg/kg in feed) | CE/FC Liver ([2]; dose 1 mg/kg in feed) | CE/FC Small Intestine ([2]; dose 1 mg/kg in feed) | CE/FC Adrenal Gland ([2]; dose 3 mg/kg in feed) | CE/FC Lipid Accumulation to Artery ([2]; dose 3 mg/kg in feed) | CE/FC Liver ([2]; dose 3 mg/kg in feed) | CE/FC Small Intestine ([2]; dose 3 mg/kg in feed) | CE/FC Adrenal Gland ([2]; dose 10 mg/kg in feed) | CE/FC Lipid Accumulation to Artery ([2]; dose 10 mg/kg in feed) | CE/FC Liver ([2]; dose 10 mg/kg in feed) | CE/FC Small Intestine ([2]; dose 10 mg/kg in feed) | CE/FC Adrenal Gland ([2]; dose 30 mg/kg in feed) | CE/FC Lipid Accumulation to Artery ([2]; dose 30 mg/kg in feed) | CE/FC Liver ([2]; dose 30 mg/kg in feed) | CE/FC Small Intestine ([2]; dose 30 mg/kg in feed) | pIC50 (ACAT [3]) | also measured |
| --- | --- | --- | --- | --- | --- | --- | --- | --- | --- | --- | --- | --- | --- | --- | --- | --- | --- | --- | --- | --- | --- |
| CC(C)c1ccc(O)c(C(C)C)c1NC(=O)CN1CCN(CCSc2nc3cccc(C(F)(F)F)c3o2)CC1 [Comparative Compound, 2-[4-[2-(7-trifluoromethylbenzoxazol-2-ylthio)ethyl]piperazin-1-yl]-N-(2,6-diisopropyl-3-hydroxyphenyl)acetamide] | 6.34 | – | – | – | – | – | – | – | – | – | – | – | – | – | – | – | – | – | – | – | lowering of ACAT inhibitory activity (J774) (ACAT [1]; compared with the compound of Example 85 (19 nM)): about 24 fold |
| CSc1cc(C)nc(SC)c1NC(=O)CN1CCN(CCSc2nc3ccccc3o2)CC1 [Example 24, N-[2,4-bis (methylthio) -6-methyl-3-pyridyl]-2-[4-[2-(benzoxazol-2-ylthio)ethyl]-piperazin-1-yl]acetamide] | – | ≥ 3 | accompanied by a significant decrease of plasma cholesterol | 0.6 | 0.91 | 0.89 | 0.79 | 0.34 | 0.37 | 0.36 | 0.45 | 0.11 | 0.32 | 0.16 | 0.21 | 0.11 | 0.28 | 0.09 | 0.13 | – | – |
| CC(C)c1cc(O)cc(C(C)C)c1NC(=O)CN1CCN(CCSc2nc3cccc(C(F)(F)F)c3o2)CC1.Cl [Compound of the Invention, 2-[4-[2-(7-trifluoromethylbenzoxazol-2-ylthio)ethyl]piperazin-1-yl]-N-(2,6-diisopropyl-4-hydroxyphenyl)acetamide hydrochloride] | – | ≥ 3 | without a significant decrease of plasma cholesterol | – | – | – | – | 1.02 | 0.69 | 1.08 | 1.16 | 1.11 | 0.33 | 0.88 | 1.02 | 0.89 | 0.21 | 0.60 | 0.91 | 5.54 | improvement of oral absorption ([4]; compared with Example 85, medium 0.5% methyl cellulose (MC) suspension, rats 30 mg/kg): about 9.4 fold; increase in oral absorption ([4]; compared with Example 85, medium water/PEG 400 (1:4), rats 30 mg/kg): about 8 fold; AUC(0-inf) ([4]; medium 0.5% MC Suspension): 639 ng·h/mL; Cmax ([4]; medium 0.5% MC Suspension): 167 ng/mL; AUC(0-inf) ([4]; medium PEG 400: Water (4:1)): 486 ng·h/mL; Cmax ([4]; medium PEG 400: Water (4:1)): 141 ng/mL; increase of solubility ([5]; compared with the lead compound (Example 85)): 5 fold; solubility ([5]; pH 1.2, simulated gastric fluid): 500 µg/mL; macrophage selectivity (IC50 (HepG2)/IC50 (J774)) (ACAT [1]): about 45 fold; CE/FC Adrenal Gland ([2]; dose 100 mg/kg in feed): 0.52; CE/FC Lipid Accumulation to Artery ([2]; dose 100 mg/kg in feed): 0.17; CE/FC Liver ([2]; dose 100 mg/kg in feed): 0.24; CE/FC Small Intestine ([2]; dose 100 mg/kg in feed): 0.20 |
| CC(C)c1cc(C(C)C)c(CC(=O)NS(=O)(=O)Oc2c(C(C)C)cccc2C(C)C)c(C(C)C)c1 [Cl-1011] | – | ≥ 1 | accompanied by a significant decrease of plasma cholesterol | 0.62 | 0.35 | 0.37 | 0.60 | 0.24 | 0.15 | 0.17 | 0.08 | 0.28 | 0 | 0.07 | 0 | – | – | – | – | – | CE/FC Adrenal Gland ([2]; dose 0.1 mg/kg in feed): 0.98; CE/FC Lipid Accumulation to Artery ([2]; dose 0.1 mg/kg in feed): 0.73; CE/FC Liver ([2]; dose 0.1 mg/kg in feed): 1.03; CE/FC Small Intestine ([2]; dose 0.1 mg/kg in feed): 0.92; CE/FC Adrenal Gland ([2]; dose 0.3 mg/kg in feed): 1.03; CE/FC Lipid Accumulation to Artery ([2]; dose 0.3 mg/kg in feed): 0.81; CE/FC Liver ([2]; dose 0.3 mg/kg in feed): 0.74; CE/FC Small Intestine ([2]; dose 0.3 mg/kg in feed): 0.82; difference of selectivities in each of the tissues ([2]; suppressing rate of lipid accumulation vs CE/FC ratio in liver, small intestine, adrenal body): a significant difference of selectivities was not found |
| CC(C)c1cccc(C(C)C)c1NC(=O)CN1CCN(CCSc2nc3cccc(C(F)(F)F)c3o2)CC1 [Example 85, 2-[4-[2-(7-trifluoromethylbenzoxazol-2-ylthio)ethyl]piperazin-1-yl]-N-(2,6-diisopropylphenyl)acetamide] | 7.72 | – | – | – | – | – | – | – | – | – | – | – | – | – | – | – | – | – | – | 6.17 | AUC(0-inf) [6]: 71.8 ng·h/mL; Cmax [6]: 17.6 ng/mL |
